Results: publication PMC10657973 (Journal of Pharmaceutical Analysis, 2023)
Entries after “also recorded” stand apart in the source; their conditions may differ.

Tests used:
[1] = target: T1, OAT1 (Homo sapiens, UniProt Q4U2R8); test: Transport kinetics of UTs in HEK293T-OAT1 cells; assay type: cell-based; settings: HEK293T-OAT1/3 cells, 100 μM
T1 sequence (Q4U2R8 1-563): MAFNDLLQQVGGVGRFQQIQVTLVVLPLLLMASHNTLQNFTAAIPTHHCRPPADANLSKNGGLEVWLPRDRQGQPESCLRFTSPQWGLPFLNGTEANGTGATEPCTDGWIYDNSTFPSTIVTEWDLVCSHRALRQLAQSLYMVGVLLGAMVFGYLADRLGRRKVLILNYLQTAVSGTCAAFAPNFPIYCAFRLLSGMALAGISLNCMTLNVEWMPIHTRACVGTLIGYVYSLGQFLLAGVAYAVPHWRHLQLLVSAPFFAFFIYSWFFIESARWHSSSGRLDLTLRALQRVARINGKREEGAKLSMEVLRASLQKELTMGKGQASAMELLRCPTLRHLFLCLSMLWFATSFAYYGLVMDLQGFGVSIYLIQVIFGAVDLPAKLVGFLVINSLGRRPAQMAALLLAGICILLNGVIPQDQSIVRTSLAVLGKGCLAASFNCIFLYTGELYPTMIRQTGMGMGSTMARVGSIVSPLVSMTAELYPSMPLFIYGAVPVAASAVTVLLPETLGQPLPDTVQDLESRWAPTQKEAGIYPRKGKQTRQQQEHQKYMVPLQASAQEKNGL

[2] = assay type: in vivo, rats; settings: rats
[3] = system: OAT1/3 and MRP4 double-transfected MDCK cells
[4] = system: rOATs; test: rOATs inhibition experiment
[5] = target: T2, OAT3 (Homo sapiens, UniProt Q8TCC7); test: Uptake of UTs in HEK293T-OAT3 cells; assay type: cell-based; settings: 100 μM, 30 min
T2 sequence (Q8TCC7 1-542): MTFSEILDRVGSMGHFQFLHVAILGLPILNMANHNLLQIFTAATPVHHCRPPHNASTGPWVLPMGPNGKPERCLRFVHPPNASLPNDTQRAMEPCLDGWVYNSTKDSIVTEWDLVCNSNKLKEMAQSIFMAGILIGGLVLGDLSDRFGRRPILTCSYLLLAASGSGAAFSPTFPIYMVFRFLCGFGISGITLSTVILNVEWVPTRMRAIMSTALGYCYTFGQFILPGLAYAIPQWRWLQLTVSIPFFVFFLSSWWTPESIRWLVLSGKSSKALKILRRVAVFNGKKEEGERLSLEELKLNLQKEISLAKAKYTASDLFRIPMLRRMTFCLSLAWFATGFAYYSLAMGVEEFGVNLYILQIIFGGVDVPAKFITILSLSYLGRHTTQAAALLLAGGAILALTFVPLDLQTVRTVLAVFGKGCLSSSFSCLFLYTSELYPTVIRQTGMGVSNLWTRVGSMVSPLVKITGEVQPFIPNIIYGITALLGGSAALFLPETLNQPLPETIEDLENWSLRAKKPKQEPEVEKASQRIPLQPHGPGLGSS

[6] = system: rOAT1/3; test: rOAT1/3−/− rat experiment; assay type: in vivo, rats; settings: rat, in vivo
[7] = system: serum protein; test: Protein-binding ratio of UTs in rat serum; assay type: in vitro ADME, rats; settings: ultrafiltration at 37 °C
[8] = system: rMRP4; assay type: in vivo, rats
[9] = system: OAT4; test: Specificity: uptake in OAT4-overexpressing cells; assay type: cell-based
[10] = system: MRP4; test: Intracellular accumulation of UTs in MRP4-overexpressing cells; assay type: cell-based, human; settings: 100 μM, 30 min
[11] = target: T1, OAT1; test: Uptake of UTs in HEK293T-OAT1 cells; assay type: cell-based; settings: 100 μM, 30 min
[12] = system: rMRP4; assay type: in vivo, rats; settings: rat, in vivo
[13] = system: OAT1/3-MRP4 double-transfected MDCK cells; test: Transcellular transport in OAT1/3-MRP4 double-transfected MDCK cells; assay type: cell-based
[14] = system: MRP2; settings: read-out: affinity (Km) for MRP2; cited from earlier work
[15] = system: MRP4; settings: read-out: affinity (Km) for MRP4; cited from earlier work
[16] = cited from earlier work
[17] = Correlation between biomarkers and cefmetazole pharmacokinetics in rats; assay type: in vivo
[18] = substrate: CCCc1oc(CCC(=O)O)c(C(=O)O)c1C; test: Transport kinetics of UTs in HEK293T-OAT3 cells; assay type: cell-based, human; settings: other: HEK293T-OAT3, Michaelis-Menten
[19] = substrate: O=C(O)c1cc(=O)c2ccccc2[nH]1; test: Transport kinetics of UTs in HEK293T-OAT3 cells; assay type: cell-based, human; settings: other: HEK293T-OAT3, Michaelis-Menten
[20] = substrate: CCCc1oc(CCC(=O)O)c(C(=O)O)c1C; test: Transport kinetics of UTs in HEK293T-OAT1 cells; assay type: cell-based, human; settings: other: HEK293T-OAT1, Michaelis-Menten
[21] = substrate: O=C(O)c1cc(=O)c2ccccc2[nH]1; test: Transport kinetics of UTs in HEK293T-OAT1 cells; assay type: cell-based, human; settings: other: HEK293T-OAT1, Michaelis-Menten
[22] = PROB 30, 60, 120 mg/kg oral, 7 days

CCCc1oc(CCC(=O)O)c(C(=O)O)c1C [CMPF, 3-carboxy-4-methyl-5-propyl-2-furanpropanoic acid]
linear uptake time [1]: 0 to 10 min
renal excretion with MK-571 vs control ([2]; MK-571 20 mg/kg): did not affect
renal excretion with PROB vs control ([2]; PROB 60 mg/kg): did not affect
uptake at 4 °C in OAT1/3 and MRP4 double-transfected cells ([3]; 4 °C): no significant difference
uptake at 37 °C in OAT1-MRP4 cells vs double control cells ([3]; 37 °C): significantly increased
uptake at 37 °C in OAT3-MRP4 cells vs double control cells ([3]; 37 °C): significantly increased
cumulative urinary excretion in rats treated with PROB vs control ([4]; 12 h urine): no significant effects
renal uptake ratios in rats treated with PROB vs control [4, 22]: decreased
serum levels in rats treated with PROB vs control [4, 22]: increased
uptake at 4 °C in OAT3-overexpressing cells vs control ([5]; 4 °C): not significantly different
uptake of HSA-bound UT in OAT3-overexpressing cells vs control cells ([5]; 37 °C, with HSA): dramatically increased
uptake of free UT in OAT3-overexpressing cells vs control cells ([5]; 37 °C, without HSA): dramatically increased; also recorded: markedly higher
renal clearance rate in rOAT1/3−/− rats vs WT [6]: significantly decreased
renal tissue uptake ratio in rOAT1/3−/− rats vs WT [6]: significantly decreased
serum levels in rOAT1/3−/− rats vs WT [6]: significantly increased
Protein-binding ratio, Normal rats in vivo (%) (n = 6) [7]: > 90%
levels in renal tissues in rats treated with MK-571 vs control ([8]; MK-571 5, 10, 20 mg/kg oral, 7 days): significantly increased
cumulative urinary excretion in rats treated with MK-571 vs control ([8]; MK-571 (CMPF effect at 20 mg/kg)): significantly decreased
transport mediated by OAT4 / uptake in OAT4-overexpressing cells vs control [9]: significantly higher
uptake at 4 °C in MRP4-overexpressing cells vs control ([10]; 4 °C): not significantly different
intracellular accumulation in MRP4-overexpressing cells vs control cells ([10]; 37 °C, 4 mM ATP): significantly decreased
uptake at 4 °C in OAT1-overexpressing cells vs control ([11]; 4 °C): not significantly different
uptake of HSA-bound UT in OAT1-overexpressing cells vs control cells ([11]; 37 °C, with HSA): dramatically increased
uptake of free UT in OAT1-overexpressing cells vs control cells ([11]; 37 °C, without HSA): dramatically increased; also recorded: markedly higher
renal clearance rate in rMRP4−/− rats vs WT [12]: did not change significantly
renal tissue concentration in rMRP4−/− rats vs WT [12]: significantly elevated
serum levels in rMRP4−/− rats vs WT [12]: did not change significantly

CN(C)C(=O)CCSC(SCCC(=O)O)c1cccc(/C=C/c2ccc3ccc(Cl)cc3n2)c1 (stereo not drawn) [MK-571, reference compound]
effect on B to A transmembrane transport of CMPF [13]: substantially inhibited
effect on B−A transport of kynurenic acid [13]: significantly reduced
serum creatinine and urea nitrogen levels ([8]; rats, 20 mg/kg oral, 7 days): significantly increased
pathological changes in the kidneys ([8]; rats, different doses, H&E staining): No significant pathological changes

Nc1ccc(C(=O)NCC(=O)O)cc1 [aminohippuric acid]
Km [14]: 2000 µM
Km [15]: 160 µM

CO[C@@]1(NC(=O)CSCC#N)C(=O)N2C(C(=O)O)=C(CSc3nnnn3C)CS[C@@H]21 [cefmetazole, reference compound]
renal tubular secretion [16]: about 40%
plasma concentrations in rats treated with PROB ([17]; PROB 60 and 120 mg/kg 7 days, cefmetazole 100 mg/kg i.v.): increased
cmax in WT rats given 100 mg/kg vs KO rats given 60 mg/kg ([17]; i.p., 7 consecutive days): close to

B1: OAT3 (Homo sapiens) (protein)
chain: T2 sequence (Q8TCC7 1-542)
Km [18]: 447.1 µM
Vmax [18]: 133.2 pmol/mg protein/min
Km [19]: 382.2 µM

B2: OAT1 (Homo sapiens) (protein)
chain: T1 sequence (Q4U2R8 1-563)
Km [20]: 1,483 μM
Vmax [20]: 323 pmol/mg protein/min
Km [21]: 496.7 µM
